Read-outs that look alike come from different tables or passages of the source.
Columns and labels:
[1] = Acute toxicity in mice (p.o., 14 days observation); settings: mouse, in vivo, po
Protocol: The experiments were performed in CFLP white mice of both sexes of 18-22 g body weight in groups of at least 10 animals. The test compound was applied p.o. dissolved in a solution containing 0.2% Tween-80 in distilled water in a volume of 20-30 ml/kg. The observation period after treatment lasted for 14 days. Statistical evaluation was carried out as described by Litchfield-Wilcoxon's method.
The above tests are carried out by standard methods. Reference is made to the following citations: Litchfield, J. T., Wilcoxon, F.: J. Pharmacol. Exp. Ther., 96, 99-113 (1949); Newbould, B. B.: Brit. J. Pharmacol. 35, 487 (1969); Shay, H., Kemarov, S. A., Fels, S. S., Meranze, D., Gruenstein, M., Siplet, H.: Gastroenterology 5, 45 (1945); Stickney, J. C., Northup, D. W., Van Liere, E. J.: Arch. int. Pharmacodyn. 147, 113 (1964); Winter, C. A., Risley E. A., Nuss, G. W.: Proc. Soc. Exp. Biol. Med. 111, 544-547 (1962).

rats = assay: Analgesic activity "Writhing test" in rats (acetic acid i.p.); type: in vivo, rat; settings: p.o., 1 hour before acetic acid i.p.
Protocol: Rats weighing 130-170 g were administered intraperitoneally 0.75% (v/v) acetic acid in a volume of 8 ml/kg. Five minutes after treatment with acetic acid the total number of characteristic writhing reactions was counted for 10 minutes and expressed as percentage of the control group.
(§1) The above tests are carried out by standard methods. […] Pharmacodyn. […] A., Risley E. A., Nuss, G. W.: Proc. Soc.

granulocytes = assay: Measurement of chemiluminescence of granulocytes (PHA-stimulated, luminol); type: cell-based, human (healthy volunteers); settings: Homo sapiens, 0.25 h, read-out: IC50, chemiluminescence of granulocytes
Protocol: The test-compounds were dissolved in dimethyl-sulfoxide (DMSO) in a concentration of 10^-1 M, dilutions were made in the incubation medium employed. Heparinized blood (10 IU/ml) was taken from healthy volunteers. The blood was diluted with equal wolume of dextran, then the white blood cells were separated by sedimentation. The granulocytes were separated by Uromio gradient. […] The cell suspension was put in dark box for 15 min. Luminol was dissolved in concentrated NH4 OH and diluted in the following solution:
50 ml Tris-Parker medium (containing 1,2 g Tris, pH=7,4)
150 ml Parker tissue culture medium
4 ml glucose 40% w/v in water
The Luminol solution (500 μl) was measured in plastic vials and put in dark (37° C.). The reaction was started by addition of the cells and stimulating agent (Phytohaemaglutinin-PHA-10 μg/ml).
The vials were continuously and gently shaken and the PHA stimulation was measured in every 2,5 min. for 15 min. in a Beckmann LS-100 spectrometer (coincidence switched off). The percentage of the counts measured was calculated in comparison with the solvent treated control cells. At least 5 concentrations of each compound were investigated in at least 3 parallels.

Wistar rats = assay: Antipyretic effect in rats (brewer yeast-induced fever); type: in vivo, rat (Wistar)
Protocol: The experiments were performed in groups of 10 Wistar rats of both sexes weighing 160-200 g. Fever was induced by 20% brewer yeast suspended in 0.9% saline solution, applied subcutaneously in a volume of 2 ml/rat distributed at various sites of the back. After 18 hours the test compound or the vehicle (control) was administered in volume of 10 ml./kg p.o. During this period the rats were fasted but received drinking water ad libitum. The rectal temperature of the animals was measured with a Thermotest thermometer 2 days before the administration of the test compound and after treatment every 60th minute. Animals with an increase of body temperature less than 0.8° C. were excluded from the experiment.
as §1

[2] = PHA 10 μg/ml stimulation, luminol 32 μM, 37° C., 15 min

Structure (SMILES) | LD50 at 336 h [1] [mg/kg] | Analgesic effect on rats, Therapeutical Index (rats) | IC50 (granulocytes; [2]) [µM] | Maximal temperature decrease (Wistar rats; 100 mg/kg p.o.) [°C] | Maximal temperature decrease (Wistar rats; 200 mg/kg p.o.) [°C] | IC50 (granulocytes) [µM]
Br.COc1cc(Cc2cnc(N)nc2N)ccc1O [Example 12, 2,4-Diamino-5-(3-methoxy-4-hydroxy-benzyl)-pyrimidine-hydrobromide] | > 2000 | > 40.0 |  |  |  | 
COc1cccc(Cc2cnc(N)nc2N)c1 [Example 2, 2,4-Diamino-5-(3-methoxy-benzyl)-pyrimidine] | ~410 | about 5.9 | ~100 |  |  | 
COCCOc1ccc(Cc2cnc(N)nc2N)cc1OC [Example 10, 2,4-Diamino-5-(3-methoxy-4-methoxyethoxy-benzyl)-pyrimidine] | < 500 | < 14.3 |  |  |  | 
CCCCOc1ccc(Cc2cnc(N)nc2N)cc1OC [Example 9, 2,4-Diamino-5-(3-methoxy-4-n-butoxy-benzyl)-pyrimidine] | > 2000 | > 125.0 | ~1 |  |  | 
COc1cc(Cc2cnc(N)nc2N)cc(OC)c1 [Example 3, 2,4-Diamino-5-(3,5-dimethoxy-benzyl)-pyrimidine] | ~800 | about 8.0 |  |  |  | 
COc1cc(Cc2cnc(N)nc2N)ccc1OCc1ccccc1 [Example 11, 2,4-Diamino-5-(3-methoxy-4-benzyloxy-benzyl)-pyrimidine] | > 2000 | > 37.0 |  |  |  | 
COc1cccc(Cc2cnc(N)nc2N)c1OC [Example 5, 2,4-Diamino-5-(2,3-dimethoxy-benzyl)-pyrimidine] | ~500 | about 5.0 |  |  |  | 
C=CCOc1ccc(Cc2cnc(N)nc2N)cc1OC.Cl [Example 8, 2,4-Diamino-5-(3-methoxy-4-allyloxy-benzyl)-pyrimidine-hydrochloride] | ~1500 | about 42.9 | ~1 | 0.8 |  | 
COc1ccc(Cc2cnc(N)nc2N)cc1 [Example 1, 2,4-Diamino-5-(4-methoxy-benzyl)-pyrimidine] | ~350 | about 8.1 | ~100 |  | 0.9 | 
COc1ccc(Cc2cnc(N)nc2N)c(OC)c1 [Example 4, 2,4-Diamino-5-(2,4-dimethoxy-benzyl)-pyrimidine] | ~2000 | about 33.3 |  |  |  | 
CCCCC1C(=O)N(c2ccccc2)N(c2ccccc2)C1=O [Phenylbutazone, 3,5-dioxo-1,2-diphenyl-4-(n-butyl)-pyrazolidine, reference compound] |  |  | 100 |  |  | 
COc1ccc2c(c1)c(CC(=O)O)c(C)n2C(=O)c1ccc(Cl)cc1 [Indomethacin, 1-(p-chloro-benzoyl)-5-methoxy-2-methyl-1H-indole-3-acetic acid, reference compound] | 22.5 | 4.8 |  |  |  | 100
CC(=O)Oc1ccccc1C(=O)O [Acetylsalicylic acid, reference compound] |  |  |  |  | 1.0 | 
CN1C(C(=O)Nc2ccccn2)=C(O)c2ccccc2S1(=O)=O [Piroxicam, 4-hydroxy-2-methyl-N-2-pyridyl-2H-1,2-benzothiazine-3-carboxamide-1,1-dioxide, reference compound] |  |  | 100 |  |  | 
CCOc1ccc(Cc2cnc(N)nc2N)cc1OC [Example 7, 2,4-Diamino-5-(3-methoxy-4-ethoxy-benzyl)-pyrimidine] | ~350 | about 7.6 | ~1 | 0.7 |  | 
Nc1ncc(Cc2ccc3c(c2)OCO3)c(N)n1 [Example 6, 2,4-Diamino-5-(3,4-methylenedioxy-benzyl)-pyrimidine] | ~750 | about 57.7 |  | 1.0 |  | 
